Like-named read-outs stand apart in the source and are kept apart here.
Columns and labels:
[1] = system: normal skin of CD Hairless male rats; assay type: in vivo, rat
Procedure, shortened: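 Liposomal egg yolk phospholipid photosensitizer given as single i.v. tail-vein bolus at 1, 1.5 and 2 μmol/kg; skin spots irradiated with 532 nm laser (150 mW/cm^2, 150J, 1 cm) at 1, 6, 24, 48, 96 hrs post injection. Value is time of last observed skin response spot.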

[2] = system: normal uninjured rat carotid arteries (medial and adventitial cell populations); assay: In vivo rat carotid artery acellularity after PDT; design: species or system Sprague Dawley rats; conditions: for Max % rat Artery Accelularity: Table 3, drug dose 1 μMol, 50 J/cm^2, 3 days post treatment
Procedure, shortened: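 Metallated photosensitizers light-activated in normal uninjured rat left common carotid via balloon catheter introduced through femoral arteriotomy under isoflurane; excitation 575 nm (Ga, Zn, Al, Sn) or 532 nm (Pt). Arteries harvested 3 days post-treatment, H&E-stained; medial and adventitial cell density assessed by light microscopy.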

COC(=O)CCC1=C(C)c2cc3[n-]c(cc4nc(cc5[n-]c(cc1n2)c(CCC(=O)OC)c5C)C=C4C)cc3C.[Cl-].[Ga+3] [Example 4, Gallium Chloride Deuteroporphyrin Dimethyl Ester]
Normal skin Response (1 μmol) ([1]; rat, in vivo): 6 h | Max % rat Artery Accelularity [2]: 95%

CCC1=C(C)C2=[N+]3C1=Cc1c(C)c(CC)c4[n]1[Ga-2]31([Cl])[n]3c(c(C)c(CCC(=O)NC)c3=CC3=[N+]1C(=C4)C(C)=C3CCC(=O)NC)=C2 [Example 121, Gallium Chloride Mesoporphyrin N-methyl Amide]
Normal skin Response (1 μmol) ([1]; rat, in vivo): 6 h | Max % rat Artery Accelularity [2]: 60%

Gallium Chloride Mesoporphyrin Dimethyl Ester [Example 1]
Normal skin Response (1 μmol) ([1]; Table 3, time of last skin spot observed post injection, 1 μmol, 532 nm laser): 48 h | normal skin responses, time post drug injection ([1]; rats, drug dose 1 μmol/Kg): 48 h | Max % rat Artery Accelularity [2]: 95% | acellularity (rat artery) ([2]; text b234, 1 μmol/Kg (printed 1 mol/Kg for 57)): 95%
